Reference: patent US7544711B2, “Use of nitroderivatives in urinary incontinence” (Nicox S.A., priority 1996, dated 2009)

How the values were obtained:
[1] = tested on: normal urinary bladder of conscious rats; experiment: Cystometrogram, normal urinary bladder of conscious rats; type: in vivo, rat; conditions: 5 mg/kg oral, 4 hours after dosing, IC=interval between contractions
Procedure: Cystometrograms of conscious rats were determined according to the method described by Howe B. B et al. (1995) (see Example 9).
Male Wistar rats weighing about 500 g were used. The rats were anaesthetised with Nembutal. After opening their abdomen and exposing their urinary bladder, a catheter filled with physiological solution was implanted in the urinary bladder and caused to emerge from the back of the animals. The abdominal muscle and skin were then sutured. 48 hours after surgery the animals were placed in metabolic cages and the catheters were connected to a perfusor which perfused 0.18 ml/min of a physiological solution into the urinary bladder, and to a pressure transducer in order to measure intravesical pressure. After stabilisation for 60 minutes, the animals were orally treated with the test products and urination frequency was than measured during 4 hours after dosing.

[2] = tested on: normal urinary bladders of anaesthetised rats; experiment: Urinary bladder voiding reflex in anaesthetised rats; type: in vivo, rat; conditions: 18 hours after last treatment, controls = 100
Procedure: 40 Sprague Dawley rats weighing about 300 g were randomly divided into 4 groups and orally treated twice a day for 4 days according to the following experimental scheme: 18 hours after the last treatment, the effects on the urinary bladder voiding reflex were evaluated using the method described by Maggi C. A. et al., Prostanoids modulate reflex micturition by acting through capsaicin-sensitive afferents, European Journal of Pharmacology, 105-112, 1988. The animals were anaesthetised with urethane, the urinary bladder was prepared for intraluminal pressure measurement. After a stabilisation period with an empty urinary bladder, this was progressively filled with a physiological solution by slow infusion (0.046 ml/min). A contraction of the urinary bladder was observed upon reflex triggering. The volume of physiological solution and intraluminal pressure required to evoke the reflex (volume and pressure thresholds) were measured. […] All tested products increased this threshold and can, therefore, be considered useful in case of detrusor instability.

[3] = tested on: normal urinary bladder strips; experiment: Electrically induced contraction of urinary bladder strips, normal rats; type: cell-based, rat; conditions: 10^−6 M; normal tissue; 1/7 Hz electrical stimulation
From the text: (§1) The vesical hypertrophy model secondary to urethral obstruction in rats described by Malmgren A. et al.: Cystometrical evaluation of bladder instability in rats with intravesical outflow obstruction, The Journal of Urology, 1987, 137, 1291-1294, was used in order to evaluate the effect of the drugs on hyperactive vesical muscle.
(§2) Male Sprague Dawley rats weighing about 250 g were used. In order to obtain partial urethral obstruction, the rats were anaesthetised with Nembutal and the urinary bladder and urethra were exposed by abdominal incision. A ligature was made around the urethra in the presence of an intraluminal cannula with 1 mm diameter. After suturing the abdominal wall the animals were stabulated for 6 weeks in order for vesical hypertrophy to start.
(§3) The in vitro experiments were conducted with the parallel use of strips obtained from normal rats and rats with vesical hypertrophy.
(§4) The in vitro urinary bladder strips were prepared as described above and the inhibition induced by the drugs on contraction induced by 1/7 Hz electrical stimulation lasting 1 msec., an above maximal voltage, produced by two platinum electrodes, was measured.

isolated rat detrusor = experiment: Contraction inhibiting activity in isolated rat detrusor (40 mM KCl); type: cell-based
Procedure: Male Wistar rats weighing 200 to 300 g were used. The method used is described by Zhou Q. et al. (1995) (see Example 13). After sacrificing the rats by cervical displacement the urinary bladder was isolated and horizontal strips of detrusor muscle about 2 mm wide and about 5 mm long were obtained from the median region. The strips were placed in baths for isolated organs containing Krebs liquid and subjected to a 1 g tension. Tension variations during the test were measured isometrically by using a pressure transducer connected to a polygraph. The inhibitory effect of a pre-treatment with the test derivatives on contraction induced by 40 mM KCl was determined versus drugs having an opening potassium channel activity (cromakalin, nicorandil) nitroderivatives (nitroglycerin, nicorandil) and anti-inflammatories (indomethacin, naproxen, nimesulide).

[4] = tested on: normal urinary bladder of conscious dogs; experiment: Cystometrogram, normal urinary bladder of conscious dogs; type: in vivo, dog; conditions: 4 hours following dosing, IC=interval between contractions
Procedure: The cystometrogram of conscious dogs was determined in accordance with the method described by Howe B. B. et al., ZENECA ZD 6169: a NOVEL KATP Channel opener with in vivo selectivity for urinary bladder, Journal of Pharmacology and Experimental Therapeutics, 274, 884-890, 1995.
Female Beagle dogs with urinary bladder catheterised through the urethra by operating in sterile conditions, were used. Catheters were connected to a perfusor which perfused into the urinary bladder a physiological solution and to a pressure transducer in order to measure intravesical pressure. After 15 minute stabilisation, a 30 ml bolus of physiological solution was perfused into the urinary bladder in order to measure increased intravesical pressure and a series of smaller boluses were then perfused until spontaneous contractions were observed. After a period of contraction stabilisation, contracting activity was monitored for 60 minutes. The animals were then treated orally with the test products and urination frequency was then measured during 4 hours following dosing in […].

[5] = tested on: gastroenteric tract of rats; experiment: In vivo gastrointestinal safety study; parameters: species or system rat
From the text: Forty Sprague Dawley rats weighing about 300 g were randomly divided into 4 groups and orally treated twice a day for 4 days according to the following experimental scheme:
Eighteen hours after the last treatment the rats were sacrified to determine any gastrointestinal damage.

[6] = tested on: pig urethral smooth muscle; experiment: Relaxing effect in pig urethral smooth muscle; type: cell-based; conditions: 10^−5 M; for Relaxation % 1: first treatment; for Relaxation % 1 / Relaxation % 2: 100% = highest relaxation in medium without Ca++; for Relaxation % 2: second consecutive treatment; for relaxing activity and tachyphylaxis (in words): two consecutive treatments
Procedure: Samples of urethra were removed from female pigs about 6 months old.
The urethra was opened longitudinally and samples of smooth muscle about 1×2×6 mm in size were removed from an area about 4 mm below ureteral orifices. The samples of smooth muscle were placed in baths for isolated organs, incubated at 37° C. and subjected to a 10 mN tension and connected to a force transducer for measuring mechanical activity. After a period of balancing of about 60 minutes, the prepared samples were exposed to Krebs solution without Ca++ to determine the highest relaxation level. Normal tone was then restored by adding Krebs solution. The relaxation effects of the test derivatives were then measured. The test wasa repeated two consecutive times for each prepared sample in order to evaluate any tachyphylaxis effects.

[7] = tested on: hypertrophic urinary bladder strips; experiment: Electrically induced contraction of urinary bladder strips, rats with vesical hypertrophy; type: cell-based, rat; conditions: 10^−6 M; hypertrophic tissue; 1/7 Hz electrical stimulation
From the text: as §1, §2, §3, §4

nitroxy-sinthetase = target: T1, nitroxy-sinthetase (Rattus norvegicus, UniProt Q06518); experiment: LPS-induced nitroxysynthetase activity in rat neutrofils after i.p. dosing; type: in vivo; conditions: 10 mg/kg i.p.; LPS 5 mg/kg i.v.; rat neutrofils four hours later; compared to the group treated with the vehicle alone
T1 construct: Blood was collected for neutrofil isolation; from tissue; host or cells: neutrophils isolated from blood of LPS-treated Wistar rats
Procedure: The nitroxy-sinthetase inhibiting activity induced by lipopolisaccharide (LPS) was determined in rat neutrofils after administration of any of the test compounds and compared with that obtained after treatment with the suspending vehicle alone (0.5% carboxymethyl cellulose, 5 ml/kg) and a product used as comparison. Briefly, Wistar rats fasted for 24 hours before treatment received one of the test compounds (10 mg/kg) intraperitoneally or the vehicle LPS (5 mg/kg) intravenously (caudal vein).
Four hours later the animals were sacrified. Blood was collected for neutrofil isolation.
The enzymatic activity was determined according to the od described by Assreuy J. et al. Feedback inhibition of nitric oxide sinthase activity by nitric oxide, British Journal of Pharmacology, […], 1993.

[8] = tested on: rat femoral artery strips; experiment: Relaxing activity on vessel smooth muscle (phenylephrine-contracted femoral artery strips); type: cell-based; conditions: contractions induced by 3×10^−5 M phenylephrine
From the text: Male Wistar rats weighing 200 to 300 g were used. The method used is described by Zhou Q. et al. The inhibitory mechanism of nicorandil in isolated rat urinary bladder and femoral artery, European Journal of Pharmacology, 153-159, 1995. After sacrifing the rats by cervical displacement, the femoral arteries were isolated for the preparation of helicoidal strips about 1×15 mm in size, from which the endothelium was removed. The prepared strips were placed in baths for isolated organs containing Krebs liquid and subjected to a weight of 0.5 g. Tension variations during the test were isometrically measured by means of a pressure transducer connected to a polygraph. The inhibitory effect of a treatment with the test derivatives on contractions induced by 3×10^−5 M phenylephrine versus reference preparations having a potassium channel opening activity and/or NO donors was measured.

[9] = 3 mg/kg oral twice a day for 4 days
[10] = Rattus norvegicus, 10^−4 M, contraction induced by 40 mM KCl
[11] = 3 mg/kg oral twice a day for 4 days, rats
[12] = 5 mg/kg oral twice a day for 4 days

SMILES	IC treated/IC baseline [1]	inhibition at 100 µM (isolated rat detrusor; [10]) [%]	IC treated/IC baseline ([4]; 3 mg/kg oral)	Relaxation % 1 [6] [%]	Relaxation % 2 [6] [%]	relaxing activity and tachyphylaxis (in words) [6]	other results
COc1ccc2c(c1)c(CC(=O)O)c(C)n2C(=O)c1ccc(Cl)cc1 [Indomethacin]	1.34	38.5	1.25	1.0	1.2	practically inactive	Pressure threshold (%) [2, 9]: 190%; Volume threshold (%) [2, 9]: 198%; Contraction % [3]: 78.2%; animals with diffuse adherences [5, 11]: 3/10; animals with ulceration also in the intestines [5, 11]: 7/19; gastrointestinal damage (in words) [5, 11]: ulceration was observed in the stomachs; Contraction % [7]: 76.3%
O=C(O)c1ccccc1Nc1cccc(C(F)(F)F)c1 [Flufenamic acid, 2-[[3-(trifluoromethyl)phenyl]-amino]benzoic acid]	1.42	–	1.42	12.2	13.2	has itself a myorelaxing activity	NITROXY-SYNTHETASE ACTIVITY (nitroxy-sinthetase): 98 percentage
CS(=O)(=O)N(C(=O)CCCCCO[N+](=O)[O-])c1ccc([N+](=O)[O-])cc1Oc1ccccc1 [NO-M, N-[(2-PHENOXY-4-NITRO)PHENYL]-N-(6-NITROXY)HEXANOYLMETHANE-SULPHONAMIDE]	–	–	–	–	–	–	Inhibition % (isolated rat detrusor; 10^−4 M, contraction induced by 40 mM KCl): 48.1%; Inhibition % ([8]; 10^−4 M): 19.5%
O=C(NCCO[N+](=O)[O-])c1cccnc1 [Nicorandil]	–	26.4	–	–	–	–	inhibition at 1 µM ([8]; Rattus norvegicus, 10^−6 M): 32.6%
CC1(C)Oc2ccc(C#N)cc2C(N2CCCC2=O)C1O (centres unmarked) [Cromakalim]	–	–	–	–	–	–	Contraction % [3]: 50.5%; inhibition at 1 µM (isolated rat detrusor; Rattus norvegicus, 10^−6 M, contraction induced by 40 mM KCl): 33.3%; IC treated/IC baseline ([4]; 0.5 mg/kg oral): 1.48; inhibition at 0.3 µM ([8]; Rattus norvegicus, 3 × 10^−7 M): 54.1%; Contraction % [7]: 35.7%
N=C(N)NCCC[C@H](N)C(=O)O [L-arginine]	–	–	–	22.7	12.2	active but induced tachyphylaxis	–
COc1ccc2c(c1)c(CC(=O)Oc1cccc(CO[N+](=O)[O-])c1)c(C)n2C(=O)c1ccc(Cl)cc1 [NO-I]	1.48	46.3	1.43	39.3	37.2	–	Pressure threshold (%) [2, 9]: 223%; Volume threshold (%) [2, 9]: 226%; Contraction % [3]: 61.5%; animals with gastric ulcers ([5]; 3 mg/kg oral twice a day for 4 days, group of 10 rats): 1; inhibition at 100 µM ([8]; Rattus norvegicus, 10^−4 M): 22.2%; Contraction % [7]: 40.3%
CS(=O)(=O)Nc1ccc([N+](=O)[O-])cc1Oc1ccccc1 [Nimesulide]	–	41.8	–	–	–	–	–
O=C(Oc1cccc(CO[N+](=O)[O-])c1)c1ccccc1Nc1cccc(C(F)(F)F)c1 [NO-F]	1.62	–	1.76	45.8	52.1	–	NITROXY-SYNTHETASE ACTIVITY (nitroxy-sinthetase): 63 percentage; Pressure threshold (%) [2, 12]: 203%; Volume threshold (%) [2, 12]: 205%; gastrointestinal damage (in words) ([5]; 5 mg/kg oral twice a day for 4 days, group of 10 rats): one animal with a gastric ulcer and an animal with a duodenal ulcer
COc1ccc2cc([C@H](C)C(=O)O)ccc2c1 [Naproxen]	–	–	–	–	–	–	inhibition at 100 µM (isolated rat detrusor; Rattus norvegicus, 5 · 10^−4 M, contraction induced by 40 mM KCl): 15.2%
O=[N+]([O-])OCC(CO[N+](=O)[O-])O[N+](=O)[O-] [Nitroglycerin]	–	–	–	32.1	7.3	active but induced tachyphylaxis	inhibition at 10 µM (isolated rat detrusor; Rattus norvegicus): 28.7%
